Reference: ChEMBL document CHEMBL5625249, “Optimization and antifungal activity of quinoline derivatives linked to chalcone moiety combined with FLC against Candida albicans” (Eur J Med Chem, 2023)

Key:
Format in all cases: functional
Candida albicans [1] = experiment: Antifungal activity against FLC-sensitive Candida albicans SC5314 measured after 24 hrs by microdilution method
Candida albicans [2] = experiment: Synergistic antifungal activity against FLC-sensitive Candida albicans SC5314 measured after 24 hrs in presence of fluconazole by microdilution method
Candida albicans [3] = experiment: Antifungal activity against Clinical FLC-resistant Candida albicans 23 measured after 24 hrs by microdilution method
Candida albicans [4] = experiment: Synergistic antifungal activity against Clinical FLC-resistant Candida albicans 23 measured after 24 hrs in presence of fluconazole by microdilution method
Candida albicans [5] = experiment: Synergistic antifungal activity against FLC-sensitive Candida albicans SC5314 assessed as fractional inhibitory concentration index measured after 24 hrs in presence of fluconazole by microdilution method
Candida albicans [6] = experiment: Synergistic antifungal activity against Clinical FLC-resistant Candida albicans 23 assessed as fractional inhibitory concentration index measured after 24 hrs in presence of fluconazole by microdilution method

| SMILES | MIC80 (Candida albicans [1]) | MIC80 (Candida albicans [2]) | MIC80 (Candida albicans [3]) | MIC80 (Candida albicans [4]) | fractional inhibitory concentration index (FICI) (Candida albicans [5]) | fractional inhibitory concentration index (FICI) (Candida albicans [6]) |
| --- | --- | --- | --- | --- | --- | --- |
| C=CC(=O)N1CCN(c2ccc(C(=O)/C=C/c3cc4ccccc4nc3N3CCN(C)CC3)cc2)CC1 | > 40 µg/mL | 4.11 µg/mL | > 40 µg/mL | 26.4 µg/mL | 0.76 | 0.66 |
| CN1CCN(c2nc3ccccc3cc2/C=C/C(=O)c2ccc(N3CCNCC3)cc2)CC1 | > 40 µg/mL | 2.56 µg/mL | > 40 µg/mL | 24 µg/mL | 0.47 | 0.6 |
| CN1CCN(c2nc3ccccc3cc2/C=C/C(=O)c2ccc(N3CCN(C(=O)CCCl)CC3)cc2)CC1 | > 40 µg/mL | > 40 µg/mL | > 40 µg/mL | > 40 µg/mL |  |  |
| CN1CCN(c2nc3ccccc3cc2/C=C/C(=O)c2ccc(N3CCN(S(=O)(=O)C4CC4)CC3)cc2)CC1 | > 40 µg/mL | 4.93 µg/mL | > 40 µg/mL | 6.03 µg/mL | 0.91 | 0.15 |
| Cc1ccc(S(=O)(=O)N2CCN(c3ccc(C(=O)/C=C/c4cc5ccccc5nc4N4CCN(C)CC4)cc3)CC2)cc1 | > 40 µg/mL | > 40 µg/mL | > 40 µg/mL | 8.08 µg/mL |  | 0.2 |
| C=C(C)C(=O)N1CCN(c2ccc(C(=O)/C=C/c3cc4ccccc4nc3N3CCN(C)CC3)cc2)CC1 | > 40 µg/mL | 3.71 µg/mL | > 40 µg/mL | 4.93 µg/mL | 0.69 | 0.12 |
| CC(=O)N1CCN(c2ccc(C(=O)/C=C/c3cc4ccccc4nc3N3CCN(C)CC3)cc2)CC1 | > 40 µg/mL | > 40 µg/mL | > 40 µg/mL | > 40 µg/mL |  |  |
| CN1CCN(c2nc3ccccc3cc2/C=C/C(=O)c2ccc(N3CCN(S(=O)(=O)c4ccc(C(F)(F)F)cc4)CC3)cc2)CC1 | > 40 µg/mL | > 40 µg/mL | > 40 µg/mL | 1.15 µg/mL |  | 0.03 |
| Cc1ccc(C(=O)CN2CCN(c3ccc(C(=O)/C=C/c4cc5ccccc5nc4N4CCN(C)CC4)cc3)CC2)cc1 | > 40 µg/mL | 5.68 µg/mL | > 40 µg/mL | 33.4 µg/mL | 1.05 | 0.83 |
| CN1CCN(c2nc3ccccc3cc2/C=C/C(=O)c2ccc(N3CCN(C(=O)c4ccc(Cl)cc4)CC3)cc2)CC1 | > 40 µg/mL | 0.64 µg/mL | > 40 µg/mL | 1.49 µg/mL | 0.12 | 0.04 |
| CN1CCN(c2nc3ccccc3cc2/C=C/C(=O)c2ccc(N3CCN(C(=O)c4ccc(F)cc4)CC3)cc2)CC1 | > 40 µg/mL | 0.88 µg/mL | > 40 µg/mL | 3.43 µg/mL | 0.16 | 0.09 |
| CN1CCN(c2nc3ccccc3cc2/C=C/C(=O)c2ccc(N3CCN(S(=O)(=O)c4ccc(F)cc4)CC3)cc2)CC1 | > 40 µg/mL | 18.3 µg/mL | > 40 µg/mL | 1.14 µg/mL | 3.39 | 0.03 |
| CN1CCN(c2nc3ccccc3cc2/C=C/C(=O)c2ccc(N3CCN(CC(=O)c4ccc(Cl)c(Cl)c4)CC3)cc2)CC1 | > 40 µg/mL | 17 µg/mL | > 40 µg/mL | 36.2 µg/mL | 3.14 | 0.91 |
| CN1CCN(c2nc3ccccc3cc2/C=C/C(=O)c2ccc(N3CCN(CC(=O)c4ccc(F)cc4)CC3)cc2)CC1 | > 40 µg/mL | 6.74 µg/mL | > 40 µg/mL | > 40 µg/mL | 1.25 |  |
| CN1CCN(c2nc3ccccc3cc2/C=C/C(=O)c2ccc(N3CCN(C(=O)/C=C/c4ccccc4)CC3)cc2)CC1 | > 40 µg/mL | > 40 µg/mL | > 40 µg/mL | 5.83 µg/mL |  | 0.15 |
| CN1CCN(c2nc3ccccc3cc2/C=C/C(=O)c2ccc(N3CCN(Cc4ccc(C#N)cc4)CC3)cc2)CC1 | > 40 µg/mL | 4.73 µg/mL | > 40 µg/mL | 5.4 µg/mL | 0.88 | 0.14 |
| COC(=O)CN1CCN(c2ccc(C(=O)/C=C/c3cc4ccccc4nc3N3CCN(C)CC3)cc2)CC1 | > 40 µg/mL | 14.1 µg/mL | > 40 µg/mL | > 40 µg/mL | 2.6 |  |
| CN1CCN(c2nc3ccccc3cc2/C=C/C(=O)c2ccc(N3CCN(S(C)(=O)=O)CC3)cc2)CC1 | > 40 µg/mL | 28.1 µg/mL | > 40 µg/mL | 22.5 µg/mL | 5.2 | 0.56 |
| CN1CCN(c2nc3ccccc3cc2/C=C/C(=O)c2ccc(N3CCN(S(=O)(=O)c4ccc([N+](=O)[O-])cc4)CC3)cc2)CC1 | > 40 µg/mL | 17.8 µg/mL | > 40 µg/mL | > 40 µg/mL | 3.3 |  |
| CN1CCN(c2nc3ccccc3cc2/C=C/C(=O)c2ccc(N3CCN(S(=O)(=O)c4ccc(Cl)c(C(F)(F)F)c4)CC3)cc2)CC1 | > 40 µg/mL | 5.31 µg/mL | > 40 µg/mL | 26.8 µg/mL | 0.98 | 0.67 |
| CN1CCN(c2nc3ccccc3cc2/C=C/C(=O)c2ccc(N3CCN(S(=O)(=O)c4ccc(OC(F)(F)F)cc4)CC3)cc2)CC1 | > 40 µg/mL | 4.31 µg/mL | > 40 µg/mL | 4.05 µg/mL | 0.8 | 0.1 |
| CN1CCN(c2nc3ccccc3cc2/C=C/C(=O)c2ccc(N3CCN(Cc4ccc(F)c(F)c4)CC3)cc2)CC1 | > 40 µg/mL | 2.06 µg/mL | > 40 µg/mL | 6.18 µg/mL | 0.38 | 0.15 |
| COc1ccc(C(=O)CN2CCN(c3ccc(C(=O)/C=C/c4cc5ccccc5nc4N4CCN(C)CC4)cc3)CC2)cc1OC | > 40 µg/mL | 5.5 µg/mL | > 40 µg/mL | 28.1 µg/mL | 1.01 | 0.7 |
